Square brackets hold non-standard residues; d marks the D form. Side chains are listed from the residue outwards. Peptide text beside a SMILES is read from it. * marks the point of attachment. Phe(4-NH2) = Nc1ccc(C[C@H](N)C(=O)O)cc1; Tos = Cc1ccc(S(=O)(=O)*)cc1; Boc = CC(C)(C)OC(=O)*; Cam = NC(=O)C*
test system: Experimental Autoimmune (or Allergic) Encephalomyelitis (“EAE”); experiment: In vivo evaluation: Experimental Autoimmune Encephalomyelitis (EAE) model; set-up: species or system rats or guinea pigs; conditions: treatment began on Day 8; 10 mg/kg to 200 mg/kg, bid, for five days; SC, PO or IP

Compound | active in EAE model (delayed the onset of symptoms, e.g., clinical scores no greater than 2 or slowed body weight loss as compared to the control)
Cc1ccc(S(=O)(=O)N2CCC[C@H]2C(=O)N[C@@H](Cc2ccc(NC(=O)[C@@H](C)NC(=O)OC(C)(C)C)cc2)C(=O)O)cc1 [Example 5, N-(Toluene-4-sulfonyl)-L-prolyl-4-[(N-tert-butoxylcarbonyl-D-alanyl)amino]-L-phenylalanine] (Tos-Pro-[Phe(4-NH2)]([dA-Boc])-OH) | active
Cc1ccc(S(=O)(=O)N2CCC[C@H]2C(=O)N[C@@H](Cc2ccc(-c3ccccc3C(=O)O)cc2)C(=O)O)cc1 [Example 12, N-(Toluene4-sulfonyl)-L-prolyl-4-[2-(carboxy)phenyl]-L-phenylalanine] | active
Cc1ccc(S(=O)(=O)N2CCC[C@H]2C(=O)N[C@@H](Cc2ccc(OCCCN(C)C)cc2)C(=O)O)cc1 [Example 18, N-(Toluene-4-sulfonyl)-L-prolyl-4-[3-(N,N-dimethylamino)propoxy]-L-phenylalanine] | active
N-(Toluene-4-sulfonyl)-L-(5,5-dimethyl)thiaprolyl-4-[2-(N,N-dimethylamino)ethoxy]-L-phenylalanine [Example 20] | active

test system: not given; experiment: not given; conditions: not given

melting point | Compound
121 to 124 °C | Cc1ccc(S(=O)(=O)N2CCC[C@H]2C(=O)N[C@@H](Cc2ccc(OCCN(C(C)C)C(C)C)cc2)C(=O)O)cc1 [Example 23, N-(Toluene-4-sulfonyl)-L-prolyl-4-[2-(N,N-diisopropylamino)ethoxy]-L-phenylalanine]
> 200 °C | CN(C)CCCOc1ccc(C[C@H](NC(=O)[C@@H]2CCCN2S(=O)(=O)c2cccs2)C(=O)O)cc1 [Example 24, N-(Thiophene-2-sulfonyl)-L-prolyl-4-[3-(N,N-dimethylamino)propoxy]-L-phenylalanine]
105 to 109 °C | CCN(CC)CCOc1ccc(C[C@H](NC(=O)[C@@H]2CCCN2S(=O)(=O)c2ccc(C)cc2)C(=O)O)cc1 [Example 26, N-(Toluene-4-sulfonyl)-L-prolyl-4-[2-(N,N-diethylamino)ethoxy]-L-phenylalanine]
> 200 °C | CN(C)CCCOc1ccc(C[C@H](NC(=O)[C@@H]2CCCN2S(=O)(=O)c2cc(Cl)sc2Cl)C(=O)O)cc1 [Example 27, N-(2,5-Dichlorothiophene-3-sulfonyl)-L-prolyl-4-[3-(N,N-dimethylamino)propoxy]-L-phenylalanine]
102 to 106 °C | Cc1ccc(S(=O)(=O)N2CCC[C@H]2C(=O)N[C@@H](Cc2ccc(OCCN3CCCCC3)cc2)C(=O)O)cc1 [Example 46, N-(Toluene-4-sulfonyl)-L-prolyl-4-[2-(piperidin-1-yl)ethoxy]-L-phenylalanine]
70 to 73 °C | Cc1ccc(S(=O)(=O)N2CCC[C@H]2C(=O)N[C@@H](Cc2ccc(OCC(=O)O)cc2)C(=O)O)cc1 [Example 56, N-(Toluene-4-sulfonyl)-L-prolyl-4-[(carboxy)methoxy]-L-phenylalanine]
195 to 196 °C | Cc1ccc(S(=O)(=O)N2CCC[C@H]2C(=O)N[C@@H](Cc2ccc(OCC(N)=O)cc2)C(=O)O)cc1 [Example 58, N-(Toluene-4-sulfonyl)-L-prolyl-4-[(aminocarbonyl)methoxy]-L-phenylalanine] (Tos-Pro-Tyr(Cam)-OH)
88 to 89 °C | Cc1ccc(S(=O)(=O)N2CCC[C@H]2C(=O)N[C@@H](Cc2ccc(OCC(=O)NC(C)(C)C)cc2)C(=O)O)cc1 [Example 59, N-(Toluene-4-sulfonyl)-L-prolyl-4-[(N-tert-butylaminocarbonyl)methoxy]-L-phenylalanine]

Further lines, the compound ahead of its results:

Compound | melting point
COC(=O)[C@H](Cc1ccc(OCCN2CCC(O)(c3ccccc3)CC2)cc1)NC(=O)[C@@H]1CCCN1S(=O)(=O)c1ccc(C)cc1 | 122 to 123 °C
COC(=O)[C@H](Cc1ccc(N(CCCN(C)C)S(=O)(=O)C(F)(F)F)cc1)NC(=O)[C@@H]1CCCN1S(=O)(=O)c1ccc(C)cc1 [Example 16, N-(Toluene-4-sulfonyl)-L-prolyl-L-4-{N-[3-(N,N-dimethylamino)propyl]-N-[trifluoromethanesulfonyl]amino}-L-phenylalanine Methyl Ester] | 45 to 55 °C
